Measured values as given in ChEMBL document CHEMBL6078643, “Palladium-Mediated Bioorthogonal System for Prodrug Activation of N-Benzylbenzamide-Containing Tubulin Polymerization Inhibitors for the Treatment of Solid Tumors” (J Med Chem, 2024).
Each block holds one compound with its values, some of them ahead of it. Active and inactive are the calls of the source. No cut-off for these calls is given here.

Legend:
HepG2 [1] = experiment: Antiproliferative activity against human HepG2 cells assessed as reduction in cell viability incubated for 72 hrs by CCK-8 assay; format: functional, cell-based; conditions: HepG2, 72 h
H22 [2] = experiment: Antiproliferative activity against mouse H22 cells assessed as reduction in cell viability incubated for 72 hrs by CCK-8 assay; format: functional, cell-based; conditions: H22, 72 h
K562 [3] = experiment: Antiproliferative activity against human K562 cells assessed as reduction in cell viability incubated for 72 hrs by CCK-8 assay; format: functional, cell-based; conditions: K562, 72 h
[4] = Antiproliferative activity against human THLE-2 cells assessed as reduction in cell viability incubated for 72 hrs by CCK-8 assay; format: toxicity, cell-based
K562 [5] = experiment: Induction of cell cycle arrest in human K562 cells assessed as accumulation of cells at G1 phase at 20 nM incubated for 72 hrs by PI staining based flow cytometric analysis ( Rvb = 77.46 %); format: functional
K562 [6] = experiment: Induction of cell cycle arrest in human K562 cells assessed as accumulation of cells at S phase at 20 nM incubated for 72 hrs by PI staining based flow cytometric analysis ( Rvb = 14.04 %); format: functional
K562 [7] = experiment: Induction of cell cycle arrest in human K562 cells assessed as accumulation of cells at G2 phase at 20 nM incubated for 72 hrs by PI staining based flow cytometric analysis ( Rvb = 8.5 %); format: functional
K562 [8] = experiment: Induction of apoptosis in human K562 cells assessed as viable cells at 20 nM incubated for 72 hrs by Annexin V-APC staining based flow cytometric analysis (reference value: 94.21%); format: functional; conditions: read-out: Activity
K562 [9] = experiment: Induction of apoptosis in human K562 cells assessed as early apoptotic cells at 20 nM incubated for 72 hrs by Annexin V-APC staining based flow cytometric analysis (reference value: 2.78%); format: functional
K562 [10] = experiment: Induction of apoptosis in human K562 cells assessed as late apoptotic cells at 20 nM incubated for 72 hrs by Annexin V-APC staining based flow cytometric analysis (reference value: 1.36%); format: functional
K562 [11] = experiment: Induction of apoptosis in human K562 cells assessed as necrotic cells at 20 nM incubated for 72 hrs by Annexin V-APC staining based flow cytometric analysis (reference value: 1.65%); format: functional
Tubulin (Homo sapiens) [12] = target: T1, Tubulin (Homo sapiens) (UniProt P68371+Q9H4B7+P0DPH7+P68366+Q13509+Q71U36+P04350+Q3ZCM7+P07437+P68363+Q9BQE3+Q6PEY2+Q13885+Q9BVA1+Q9BUF5); experiment: Disruption of microtubule organization in human K562 cells at 20 nM incubated for 72 hrs by DAPI staining based confocal microscopic analysis; format: cell-based
K562 [13] = experiment: Antiproliferative activity against human K562 cells at 100 nM incubated for 72 hrs in presence of palladium resins by CCK-8 assay; format: functional, cell-based
HepG2 [14] = experiment: Antiproliferative activity against human HepG2 cells at 100 nM incubated for 72 hrs in presence of palladium resins by CCK-8 assay; format: functional, cell-based
Tubulin (Homo sapiens) [15] = target: T1, Tubulin (Homo sapiens); experiment: Inhibition of tubulin polymerization in human HepG2 cells assessed as decrease in alpha tubulin expression at 19 nM incubated for 24 hrs by Western blotting analysis; format: cell-based
Tubulin (Homo sapiens) [16] = target: T1, Tubulin (Homo sapiens); experiment: Inhibition of tubulin polymerization in human K562 cells assessed as decrease in alpha tubulin expression at 16 nM incubated for 24 hrs by Western blotting analysis; format: cell-based
Tubulin (Homo sapiens) [17] = target: T1, Tubulin (Homo sapiens); experiment: Inhibition of tubulin polymerization in human HepG2 cells assessed as decrease in beta tubulin expression at 19 nM incubated for 24 hrs by Western blotting analysis; format: cell-based
Tubulin (Homo sapiens) [18] = target: T1, Tubulin (Homo sapiens); experiment: Inhibition of tubulin polymerization in human K562 cells assessed as decrease in beta tubulin expression at 16 nM incubated for 24 hrs by Western blotting analysis; format: cell-based
Tubulin (Homo sapiens) [19] = target: T1, Tubulin (Homo sapiens); experiment: Inhibition of tubulin polymerization in human HepG2 cells assessed as decrease in polymerized alpha tubulin level at 19 nM incubated for 24 hrs by Western blotting analysis; format: cell-based
Tubulin (Homo sapiens) [20] = target: T1, Tubulin (Homo sapiens); experiment: Inhibition of tubulin polymerization in human K562 cells assessed as decrease in polymerized alpha tubulin level at 16 nM incubated for 24 hrs by Western blotting analysis; format: cell-based
[21] = target: Bcr/Abl fusion protein (Homo sapiens) (UniProt P00519+P11274); experiment: Inhibition of Bcr-Abl in human K562 cells at 16 nM incubated for 24 hrs by Western blotting analysis; format: cell-based
Sequence of Bcr/Abl fusion protein (Homo sapiens) (P00519 whole entry, looked up, the tested form may be a part): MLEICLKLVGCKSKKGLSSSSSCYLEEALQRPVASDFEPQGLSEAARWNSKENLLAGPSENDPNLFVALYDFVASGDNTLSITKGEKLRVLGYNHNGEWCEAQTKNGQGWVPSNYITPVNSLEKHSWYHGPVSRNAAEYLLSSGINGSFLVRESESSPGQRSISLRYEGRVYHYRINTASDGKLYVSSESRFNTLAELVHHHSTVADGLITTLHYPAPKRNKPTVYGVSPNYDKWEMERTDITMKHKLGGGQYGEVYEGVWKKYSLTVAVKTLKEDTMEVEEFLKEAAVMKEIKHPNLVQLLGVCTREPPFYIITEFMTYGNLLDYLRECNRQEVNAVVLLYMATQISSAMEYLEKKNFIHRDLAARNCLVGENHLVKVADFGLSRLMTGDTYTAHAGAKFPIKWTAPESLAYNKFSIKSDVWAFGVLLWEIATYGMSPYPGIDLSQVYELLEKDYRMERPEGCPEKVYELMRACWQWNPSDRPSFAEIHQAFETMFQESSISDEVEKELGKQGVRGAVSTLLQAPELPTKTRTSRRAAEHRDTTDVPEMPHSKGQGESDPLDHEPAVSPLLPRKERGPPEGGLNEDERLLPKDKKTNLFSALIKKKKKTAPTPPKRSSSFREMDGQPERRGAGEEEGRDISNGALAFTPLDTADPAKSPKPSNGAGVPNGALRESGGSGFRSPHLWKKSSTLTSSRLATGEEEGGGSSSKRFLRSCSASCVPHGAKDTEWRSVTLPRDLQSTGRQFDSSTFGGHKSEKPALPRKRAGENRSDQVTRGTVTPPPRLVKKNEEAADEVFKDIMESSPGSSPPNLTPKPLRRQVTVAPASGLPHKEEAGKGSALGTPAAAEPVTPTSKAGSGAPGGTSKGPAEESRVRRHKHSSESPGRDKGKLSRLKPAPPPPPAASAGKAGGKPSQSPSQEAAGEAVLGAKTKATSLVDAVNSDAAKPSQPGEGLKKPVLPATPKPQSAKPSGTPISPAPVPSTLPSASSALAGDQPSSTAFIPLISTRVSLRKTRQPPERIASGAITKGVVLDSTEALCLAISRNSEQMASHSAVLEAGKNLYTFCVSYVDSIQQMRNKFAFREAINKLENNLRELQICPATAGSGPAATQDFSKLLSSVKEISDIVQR
Sequence of Bcr/Abl fusion protein (Homo sapiens) (P11274 whole entry, looked up, the tested form may be a part): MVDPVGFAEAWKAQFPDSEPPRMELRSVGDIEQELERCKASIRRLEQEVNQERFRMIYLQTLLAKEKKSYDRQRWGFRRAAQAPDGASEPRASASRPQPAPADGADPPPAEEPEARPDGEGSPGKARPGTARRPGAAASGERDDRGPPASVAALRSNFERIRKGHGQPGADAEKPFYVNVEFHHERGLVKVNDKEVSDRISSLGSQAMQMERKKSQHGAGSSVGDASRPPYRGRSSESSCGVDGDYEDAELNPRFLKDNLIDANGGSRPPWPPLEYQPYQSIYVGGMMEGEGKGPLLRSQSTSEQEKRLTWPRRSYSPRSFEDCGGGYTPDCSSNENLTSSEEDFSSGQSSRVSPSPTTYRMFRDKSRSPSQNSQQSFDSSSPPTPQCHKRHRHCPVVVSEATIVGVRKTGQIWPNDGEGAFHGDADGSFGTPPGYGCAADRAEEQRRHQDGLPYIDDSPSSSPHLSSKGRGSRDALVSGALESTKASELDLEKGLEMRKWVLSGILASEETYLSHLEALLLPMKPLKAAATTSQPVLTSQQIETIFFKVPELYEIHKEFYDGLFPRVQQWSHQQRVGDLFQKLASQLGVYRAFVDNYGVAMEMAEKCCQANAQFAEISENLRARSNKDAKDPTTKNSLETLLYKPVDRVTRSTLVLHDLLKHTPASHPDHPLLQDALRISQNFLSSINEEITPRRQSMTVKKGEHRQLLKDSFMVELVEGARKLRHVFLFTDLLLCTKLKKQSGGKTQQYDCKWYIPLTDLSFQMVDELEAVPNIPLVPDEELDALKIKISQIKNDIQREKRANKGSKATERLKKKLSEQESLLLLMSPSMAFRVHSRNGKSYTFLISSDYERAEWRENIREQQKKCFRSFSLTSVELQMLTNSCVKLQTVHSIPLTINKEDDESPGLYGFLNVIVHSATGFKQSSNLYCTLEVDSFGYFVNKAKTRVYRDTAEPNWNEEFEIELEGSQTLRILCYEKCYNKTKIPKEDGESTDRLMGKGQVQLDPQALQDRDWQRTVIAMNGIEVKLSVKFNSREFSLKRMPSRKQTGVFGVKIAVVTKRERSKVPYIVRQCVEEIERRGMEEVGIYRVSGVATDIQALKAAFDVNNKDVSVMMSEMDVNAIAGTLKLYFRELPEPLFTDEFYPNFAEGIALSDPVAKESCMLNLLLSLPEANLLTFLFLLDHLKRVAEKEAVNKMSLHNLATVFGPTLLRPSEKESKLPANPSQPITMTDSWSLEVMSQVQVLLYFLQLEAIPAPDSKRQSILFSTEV

HepG2 [22] = experiment: Antitumor activity against human HepG2 cells xenografted in Balb/c mouse assessed as tumor growth inhibition at 20 mg/kg, iv administered daily for 14 days relative to control; format: functional; conditions: HepG2, 336 h, time 14 day, read-out: TGI
HepG2 [23] = experiment: Antitumor activity against human HepG2 cells xenografted in Balb/c mouse assessed as cell necrosis at 20 mg/kg, iv administered daily for 14 days by H and E staining based analysis; format: functional, organism-based; conditions: time 14.0 day
HepG2 [24] = experiment: Antitumor activity against human HepG2 cells xenografted in Balb/c mouse assessed as cell necrosis at 20 mg/kg, iv administered daily for 14 days by TUNEL staining based analysis; format: functional, organism-based; conditions: time 14.0 day
Tubulin (Homo sapiens) [25] = target: T1, Tubulin (Homo sapiens); experiment: In vivo inhibition of tubulin polymerization in human HepG2 cells xenografted in Balb/c mouse assessed as decrease in alpha tubulin expression at 20 mg/kg, iv administered daily for 14 days incubated for 24 hrs by Western blot analysis; format: functional, organism-based; conditions: time 14.0 day
Tubulin (Homo sapiens) [26] = target: T1, Tubulin (Homo sapiens); experiment: In vivo inhibition of tubulin polymerization in human HepG2 cells xenografted in Balb/c mouse assessed as decrease in beta tubulin expression at 20 mg/kg, iv administered daily for 14 days incubated for 24 hrs by Western blot analysis; format: functional, organism-based; conditions: time 14.0 day
HepG2 [27] = experiment: Select factor, ratio of test compound IC50 to 5-fluoro-N-(3-hydroxy-4-methoxybenzyl)-2-morpholinobenzamide IC50 for antiproliferative activity against human HepG2 cells assessed as reduction in cell viability incubated for 72 hrs by CCK-8 assay; format: functional
H22 [28] = experiment: Select factor, ratio of test compound IC50 to 5-fluoro-N-(3-hydroxy-4-methoxybenzyl)-2-morpholinobenzamide IC50 for antiproliferative activity against mouse H22 cells assessed as reduction in cell viability incubated for 72 hrs by CCK-8 assay; format: functional
K562 [29] = experiment: Select factor, ratio of test compound IC50 to 5-fluoro-N-(3-hydroxy-4-methoxybenzyl)-2-morpholinobenzamide IC50 for antiproliferative activity against human K562 cells assessed as reduction in cell viability incubated for 72 hrs by CCK-8 assay; format: functional
[30] = Select factor, ratio of test compound IC50 to 5-fluoro-N-(3-hydroxy-4-methoxybenzyl)-2-morpholinobenzamide IC50 for antiproliferative activity against human THLE-2 cells assessed as reduction in cell viability incubated for 72 hrs by CCK-8 assay; format: toxicity, cell-based; conditions: read-out: Ratio IC50
[31] = Prodrug release in PBS buffer assessed as half release time of 5-fluoro-N-(3-hydroxy-4-methoxybenzyl)-2-morpholinobenzamide in presence of palladium resins at 75 uM by HPLC analysis; format: ADME
HepG2 [32] = experiment: Select factor, ratio of test compound IC50 to 4-(((4-((4-methoxyphenyl)(methyl)amino)quinazolin-2-yl)amino)methyl)phenol IC50 for antiproliferative activity against human HepG2 cells assessed as reduction in cell viability incubated for 72 hrs by CCK-8 assay; format: functional
H22 [33] = experiment: Select factor, ratio of test compound IC50 to 4-(((4-((4-methoxyphenyl)(methyl)amino)quinazolin-2-yl)amino)methyl)phenol IC50 for antiproliferative activity against mouse H22 cells assessed as reduction in cell viability incubated for 72 hrs by CCK-8 assay; format: functional
K562 [34] = experiment: Select factor, ratio of test compound IC50 to 4-(((4-((4-methoxyphenyl)(methyl)amino)quinazolin-2-yl)amino)methyl)phenol IC50 for antiproliferative activity against human K562 cells assessed as reduction in cell viability incubated for 72 hrs by CCK-8 assay; format: functional
[35] = Select factor, ratio of test compound IC50 to 4-(((4-((4-methoxyphenyl)(methyl)amino)quinazolin-2-yl)amino)methyl)phenol IC50 for antiproliferative activity against human THLE-2 cells assessed as reduction in cell viability incubated for 72 hrs by CCK-8 assay; format: toxicity, cell-based; conditions: read-out: Ratio IC50
[36] = Prodrug release in PBS buffer assessed as half release time of 4-(((4-((4-methoxyphenyl)(methyl)amino)quinazolin-2-yl)amino)methyl)phenol in presence of palladium resins at 75 uM by HPLC analysis; format: ADME

SMILES: COc1ccc(CNC(=O)c2cc(F)ccc2N2CCOCC2)cc1O
- IC50 (HepG2 [1]): 19.2 nM
- IC50 (H22 [2]): 20.3 nM
- IC50 (K562 [3]): 16 nM
- IC50 at 72 h [4]: 21.4 nM
- Activity (K562 [5]): 45.95%
- Activity (K562 [6]): 32.73%
- Activity (K562 [7]): 21.32%
- viability at 0.02 µM (K562 [8]): 15.2%
- Activity (K562 [9]): 20.68%
- Activity (K562 [10]): 59.77%
- Activity (K562 [11]): 4.31%
- Activity (Tubulin (Homo sapiens) [12]): Active
- Activity (K562 [13]): Active
- Activity (HepG2 [14]): Active
- inhibition (Tubulin (Homo sapiens) [15]): Active
- inhibition (Tubulin (Homo sapiens) [16]): Active
- inhibition (Tubulin (Homo sapiens) [17]): Active
- inhibition (Tubulin (Homo sapiens) [18]): Active
- inhibition (Tubulin (Homo sapiens) [19]): Active
- inhibition (Tubulin (Homo sapiens) [20]): Active
- inhibition [21]: Active
- inhibition in vivo at 20 mg/kg (HepG2 [22]): 49.6%
- Activity (HepG2 [23]): Active
- Activity (HepG2 [24]): Active
- Activity (Tubulin (Homo sapiens) [25]): Active
- Activity (Tubulin (Homo sapiens) [26]): Active

SMILES: COc1ccc(N(C)c2nc(NCc3ccc(O)cc3)nc3ccccc23)cc1
- IC50 (HepG2 [1]): 14.4 nM
- IC50 (H22 [2]): 19.3 nM
- IC50 (K562 [3]): 19.5 nM
- IC50 at 72 h [4]: 45.4 nM

SMILES: C#CC(C)(C)Oc1ccc(CNc2nc(N(C)c3ccc(OC)cc3)c3ccccc3n2)cc1
- IC50 (HepG2 [1]): 491 nM
- IC50 (H22 [2]): 473 nM
- IC50 (K562 [3]): 508 nM
- IC50 at 72 h [4]: 516 nM
- Ratio IC50 (HepG2 [32]): 34.1
- Ratio IC50 (H22 [33]): 24.5
- Ratio IC50 (K562 [34]): 26
- selectivity ratio at 72 h [35]: 11.4
- t1/2 [36]: 5.8 h

SMILES: C=CCOc1ccc(CNc2nc(N(C)c3ccc(OC)cc3)c3ccccc3n2)cc1
- IC50 (HepG2 [1]): 402 nM
- IC50 (H22 [2]): 285 nM
- IC50 (K562 [3]): 502 nM
- IC50 at 72 h [4]: 353 nM
- Ratio IC50 (HepG2 [32]): 27.9
- Ratio IC50 (H22 [33]): 14.8
- Ratio IC50 (K562 [34]): 25.7
- selectivity ratio at 72 h [35]: 7.8
- t1/2 [36]: > 24 h

Continued by falling IC50 (HepG2 [1]), values first:

- IC50 (HepG2 [1]): 1110 nM
- IC50 (K562 [3]): 460 nM
- t1/2 [31]: 14.5 h
SMILES: C#CC(C)(C)Oc1cc(CNC(=O)c2cc(F)ccc2N2CCOCC2)ccc1OC
- IC50 (H22 [2]): 444 nM
- IC50 at 72 h [4]: 1330 nM
- Ratio IC50 (HepG2 [27]): 57.8
- Ratio IC50 (H22 [28]): 21.9
- Ratio IC50 (K562 [29]): 28.7
- selectivity ratio at 72 h [30]: 62.2

- IC50 (HepG2 [1]): 914 nM
- IC50 (K562 [3]): 470 nM
- t1/2 [36]: 4.2 h
SMILES: C#CCOc1ccc(CNc2nc(N(C)c3ccc(OC)cc3)c3ccccc3n2)cc1
- IC50 (H22 [2]): 229 nM
- IC50 at 72 h [4]: 703 nM
- Ratio IC50 (HepG2 [32]): 63.5
- Ratio IC50 (H22 [33]): 11.8
- Ratio IC50 (K562 [34]): 24.1
- selectivity ratio at 72 h [35]: 15.5

- IC50 (HepG2 [1]): 541 nM
- IC50 (K562 [3]): 3980 nM
- t1/2 [31]: > 24 h
SMILES: C=CCOc1cc(CNC(=O)c2cc(F)ccc2N2CCOCC2)ccc1OC
- IC50 (H22 [2]): 282 nM
- IC50 at 72 h [4]: 5470 nM
- Ratio IC50 (HepG2 [27]): 28.2
- Ratio IC50 (H22 [28]): 13.9
- Ratio IC50 (K562 [29]): 248.8
- selectivity ratio at 72 h [30]: 25.6
